Reference: US20030166622A1, “Vitamin D derivatives with acyloxy groups in the side chains, process for their production, and the use for the production of pharmaceutical agents” (Schering AG, priority 2001, published 2003)
Entries after “also recorded” stand apart in the source; their conditions may differ.

Assays:
vitamin D receptor = biological target: T1, vitamin D receptor (Sus scrofa, UniProt A3RGC1); experiment: calcitriol-receptor test (competition with 3H-calcitriol, protein extract from intestines of juvenile pigs); details: for KF (competition factor: concentration of test substance / reference substance at 50% competition): relative to unlabeled calcitriol, 3H-calcitriol 5x10^-10 mol/l, 2 hours at 4° C; for activity in vitro: result in words, summary of the in vitro tests of the table (calcitriol-receptor test and HL 60)
T1 sequence (A3RGC1 1-427): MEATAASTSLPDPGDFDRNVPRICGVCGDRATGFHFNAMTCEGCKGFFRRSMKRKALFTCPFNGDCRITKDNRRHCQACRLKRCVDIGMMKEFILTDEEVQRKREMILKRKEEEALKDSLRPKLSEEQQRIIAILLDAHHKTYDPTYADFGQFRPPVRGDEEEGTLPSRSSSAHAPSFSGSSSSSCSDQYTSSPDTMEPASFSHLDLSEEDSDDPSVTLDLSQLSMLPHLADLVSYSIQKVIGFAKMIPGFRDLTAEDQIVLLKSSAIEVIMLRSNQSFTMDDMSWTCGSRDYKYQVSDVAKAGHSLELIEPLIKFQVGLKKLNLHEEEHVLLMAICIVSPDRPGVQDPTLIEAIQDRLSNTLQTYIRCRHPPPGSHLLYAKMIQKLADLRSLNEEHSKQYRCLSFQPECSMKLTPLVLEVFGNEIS
Experimental: It is carried out using a protein extract from the intestines of juvenile pigs. […] To this end, 250 il of a charcoal-dextran suspension is fed to each test tube and incubated at 4° C. for 20 minutes. Then, the samples are centrifuged at 10,000 g for 5 minutes at 4° C. The supernatant is decanted and measured in a á-counter after 1 hour of equilibration in Picofluor 15™.
The competition curves that are obtained at various concentrations of test substance as well as of reference substance (unlabeled calcitriol) at constant concentration of the reference substance (^3H-calcitriol) are placed in relation to one another, and a competition factor (KF) is determined.
It is defined as a quotient of the concentrations of the respective test substance and the reference substance, which are necessary for 50% competition:
KF=Concentration of test substance at 50% competition
Concentration of reference substance at 50% competition

[1] = acute hypercalcemic action in rats (serum calcium after one-time subcutaneous administration); format: in vivo, rat; details: relative to calcitriol, male rats
Experimental: To determine the acute hypercalcemic action of various calcitriol derivatives, the test that is described below is carried out:
The action of control (solution base), reference substance (1,25-dihydroxy vitamin D3=calcitriol) and test substance is tested in each case after one-time subcutaneous administration in groups of 10 healthy male rats (140-170 g). During the testing time, the rats are kept in special cages to determine the excretion of water and mineral substances. Urine is collected in 2 fractions (0-16 hours and 16-22 hours). An oral dose of calcium (0.1 mmol of calcium in 6.5% alpha-hydroxypropyl cellulose, 5 ml/animal) replaces at 1600 hours the calcium intake that is lacking by food deprivation. At the end of the test, the animals are sacrificed by decapitation and exsanguinated to determine the serum-calcium values. For the primary screening test in vivo, an individual standard dose (200 ig/kg) is tested. For selected substances, the result is supported by establishing a dose-effect relation.
A hypercalcemic action is shown in serum-calcium level values that are higher than in the control.
The significance of differences occurring between substance groups and controls as well as between test substance and reference substance are supported with suitable statistical processes.

HL 60 cells = experiment: differentiation induction of HL 60 cells to macrophages (NBT reduction); format: cell-based, human; details: relative to calcitriol; 96 hours incubation
Experimental: The differentiation-stimulating action of calcitriol analogs is also detected quantitatively.
It is known in the literature [D. J. Mangelsdorf et al., J. Cell. Biol. 98, 391 (1984)] that the treatment of human leukemia cells (promyelocyte cell line HL 60) in vitro with calcitriol induces the differentiation of cells to macrophages.
HL 60 cells are cultivated in tissue culture medium (RPMI 10% fetal calf serum) at 37° C. in an atmosphere of 5% CO2 in air.
For substance testing, the cells are centrifuged off, and 2.0×10^5 cells/ml in phenol red-free tissue culture medium are taken up. The test substances are dissolved in ethanol and diluted to the desired concentration with tissue culture medium without phenol red. The dilution stages are mixed with the cell suspension at a ratio of 1:10, and 100 il each of this cell suspension that is mixed with substance is pipetted into an indentation of a 96-hole plate. For control, a cell suspension is mixed analogously with the solvent.
After incubation for 96 hours at 37° C. in 5% CO2 in air, 100 il of an NBT-TPA solution (nitro blue tetrazolium (NBT), final concentration in the batch of 1 mg/ml, tetradecanoyl phorbolmyristate-13-acetate (TPA), final concentration in the batch of 2×10^−7 mol/l) is pipetted into each indentation of the 96-hole plate in the cell suspension.
By incubation for 2 hours at 37° C. and 5% CO2 in air, NBT is reduced to insoluble formazan because of the intracellular oxygen radical release, stimulated by TPA, in the cells that are differentiated to macrophages.
To complete the reaction, the indentations of the 96-hole plate are suctioned off, and the cells are affixed to the bottom of the plate by adding methanol and dried after affixing. To dissolve the intracellular formazan crystals that are formed, 100 il of potassium hydroxide (2 mol/l) and 100 il of dimethyl sulfoxide are pipetted into each indentation and ultrasonically treated for 1 minute. The concentration of formazan is measured by spectrophotometry at 650 nm.
As a yardstick for the differentiation induction of HL 60 cells to macrophages, the concentration of formed formazan applies.

[2] = DNFB-induced allergic contact allergy in the mouse (DNFB-DTH); format: in vivo; details: for activity in vivo (prevention of the formation of edemas): contact allergy in the mouse; for DR (Hypercalcemic threshold dose/ immunosuppressive threshold dose): therapeutic range, mouse, once daily intragastrically around sensitization, calcium level in urine as side-effect parameter
Excerpt: 58, 179-204 (1999)]. The model of the dinitrofluorobenzene (DNFB)-induced allergic contact allergy in the mouse represents an inflammatory skin disease with the background of an inflammatory reaction of the delayed type (delayed type hypersensitivity; DTH). The inflammatory phase of the contact allergy is triggered by a multi-phase reaction. A repeated contact with the topically effective contact allergen DNFB (25 il of a 0.5% (w/v) DNFB solution in acetone/olive oil 4:1 [v/v] on the shaved abdomen with a surface area of about 10 cm^2 on test days 0. and 1.) triggers an immune reaction, which results in the sensitization of the animals against the specific agent, without “visible” symptoms occurring. Only after a sensitization time of 4-5 days, in which populations of DNFB-specific lymphocytes of “memory” type have formed in the draining lymph nodes, can a renewed contact (20 il of a 0.5% (w/v) DNFB solution in acetone/olive oil 4:1 [v/v]) trigger an inflammatory skin reaction with the contact allergen at any skin area (here: on both ears, treated surface area/ear about 2 cm^2). This second phase, which is also referred to as the trigger or “challenge,” ends in an eczematous lesion on the second contact site. The evaluation of the extent of the inflammatory reaction or the success of treatment is performed routinely 24 hours after the triggering, since at this time, the parameters that are to be analyzed (ear thickness and cell infiltration as a yardstick for the edema) have reached a plateau. The model of the DNFB-induced contact allergy allows the examination of the action of systemically or topically administered test substances with immunosuppressive/immunomodulating or inflammation-inhibiting properties. In the study on immunomodulating properties of calcitriol derivatives, the latter are administered once daily intragastrically in physiological common salt solution (0.9% NaCl) with an admixture of 0.085% Myrj 53) around the time of sensitization (beginning two days before and one day before sensitization, on the day of sensitization and on day 1 and 2 after sensitization). As side-effect parameters that are typical of vitamin D, the determination of the calcium level in the urine of the treated animals is used at the latest 24 hours after the last treatment with the substance. The calcium content is determined by flame-photometry. The significance of differences occurring between substance groups and controls as well as between test substance and reference substance are supported with suitable statistic processes. The therapeutic range of the test substances and calcitriol as a reference substance is indicated as a dose ratio DR (DR=factor of hypercalcemic threshold dose/immunosuppressive threshold dose).

| SMILES | KF (competition factor: concentration of test substance / reference substance at 50% competition) (vitamin D receptor) | DR (Ca) (dose ratio for hypercalcemia, test substance dose/reference substance dose for comparable actions) [1] | DR (HL 60) (dose ratio test substance/reference substance for comparable semi-maximum actions) (HL 60 cells) | activity in vivo (prevention of the formation of edemas) ([2]; result in words) | activity in vitro (vitamin D receptor) | DR (Hypercalcemic threshold dose/ immunosuppressive threshold dose) [2] | therapeutic range (immunosuppressive threshold dose versus hypercalcemic threshold dose) ([2]; result in words, relative to compounds that have free hydroxy groups in the side chain) |
| --- | --- | --- | --- | --- | --- | --- | --- |
| C=C1/C(=C\C=C2/CCC[C@]3(C)[C@@H]([C@H](C)/C=C/[C@@H](O)C4(c5ncc(C)o5)CC4)CC[C@@H]23)C[C@@H](O)C[C@@H]1O [B, (5Z,7E,22E)-(1S,3R,24R)-25-(5-Methyloxazole-2-yl)-26,27-cyclo-9,10-secocholesta-5,7,10(19),22-tetraene-1,3,24-triol] | 2 | >300 | 3.4 |  |  |  |  |
| C=C1/C(=C\C=C2/CCC[C@]3(C)[C@@H]([C@H](C)CC[C@H](OC(C)=O)C4(c5ncc(CCCC)o5)CC4)CC[C@@H]23)C[C@@H](O)C[C@@H]1O [Compound 3a, (5Z,7E)-(1S,3R,24S)-24-Acetoxy-25-(5-butyloxazole-2-yl)-26,27-cyclo-9,10-secocholesta-5,7,10(19)-triene-1,3-diol] | >100 | >1000 | >170 | therapeutically active in vivo | inactivity; also recorded: deficient activity |  |  |
| C=C1C(=CC=C2CCCC3(C)C2CCC3C(C)C=CC(O)C2(c3ncc(CC)o3)CC2)CC(O)CC1O [C, (5Z,7E,22E)-(1S,3R,24R)-25-(5-Ethyloxazole-2-yl)-26,27-cyclo-9,10-secocholesta-5,7,10(19),22-tetraene-1,3,24-triol] | 3 | >300 | 1.3 |  |  |  |  |
| C=C1/C(=C\C=C2/CCC[C@]3(C)[C@@H]([C@H](C)CCCC(C)(C)O)CC[C@@H]23)C[C@@H](O)C[C@@H]1O [Calcitriol, 1,25-dihydroxy vitamin D3] |  | 1 | 1 |  |  | 1 |  |
| C=C1/C(=C\C=C2/CCC[C@]3(C)[C@@H]([C@H](C)CC[C@@H](OC(=O)C(C)(C)C)C4(c5ncc(CCCC)o5)CC4)CC[C@@H]23)C[C@@H](O)C[C@@H]1O [Compound 5b] | >100 | >1000 | >170 | therapeutically active in vivo | inactivity; also recorded: deficient activity | 20,000 |  |
| C=C1/C(=C\C=C2/CCC[C@]3(C)[C@@H]([C@H](C)/C=C/[C@@H](O)C4(c5ncc(CCC)o5)CC4)CC[C@@H]23)C[C@@H](O)C[C@@H]1O [A, (5Z,7E,22E)-(1S,3R,24R)-25-(5-Propyloxazole-2-yl)-26,27-cyclo-9,10-secocholesta-5,7,10(19),22-tetraene-1,3,24-triol] | 2 | 300 | 1.9 |  |  |  |  |
| C=C1/C(=C\C=C2/CCC[C@]3(C)[C@@H]([C@H](C)/C=C/[C@@H](O)C4(c5ncc(CCCCC)o5)CC4)CC[C@@H]23)C[C@@H](O)C[C@@H]1O [D, (5Z,7E,22E)-(1S,3R,24R)-25-(5-Pentyloxazole-2-yl)-26,27-cyclo-9,10-secocholesta-5,7,10(19),22-tetraene-1,3,24-triol] | 4 | >300 | >100 |  |  |  |  |
| C=C1/C(=C\C=C2/CCC[C@]3(C)[C@@H]([C@H](C)CC[C@@H](OC(=O)NC)C4(c5ncc(CCCC)o5)CC4)CC[C@@H]23)C[C@@H](O)C[C@@H]1O [Compound 11b, (5Z,7E)-(1S,3R,24R)-25-(5-Butyloxazole-2-yl)-24-[[(methylamino)-carbonyl]oxy]-26,27-cyclo-9,10-secocholesta-5,7,10(19)-triene-1,3-diol] |  |  |  |  |  |  | clearly improved |
| C=C1C(=CC=C2CCCC3(C)C2CCC3C(C)C=CC(O)C2(c3ncc(CCCC)o3)CC2)CC(O)CC1O [(5Z,7E,22E)-(1S,3R,24R)-25-(5-butyloxazole-2-yl)-26,27-cyclo-9,10-secocholesta-5,7,10(19),22-tetraene-1,3,24-triol, reference compound] |  |  |  |  |  | 1,000 |  |
